US20020137929A1, “1 - (3-heterocyclylphenyl) isothiourea, -isourea, -guanidine and -amidine herbicidal agents” (Intellectual Property Department, BASF Aktiengesellschaft, priority 1998, published 2002)

Assays:
[1] = tested on: CASOB (Sicklepod); assay: Postemergence herbicidal evaluation; format: in vivo, Cassia obtusifolia; details: postemergence
How it was run: (§1)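 Two-week-old seedlings sprayed with compound in 50/50 acetone/water plus 0.5% TWEEN 20, at about 0.0156 to 0.500 kg/ha, nozzle at 40 psi. Kept in greenhouse; rated visually 4-5 weeks after treatment on a 0-9 scale versus control, repeat tests averaged.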

[2] = tested on: CHEAL (Lambsquarters, Common); assay: Postemergence herbicidal evaluation; format: in vivo, Chenopodium album; details: postemergence
How it was run: as §1

[3] = tested on: ECHCG (Barnyardgrass); assay: Postemergence herbicidal evaluation; format: in vivo, Echinochloa crus-galli; details: postemergence
How it was run: as §1

[4] = tested on: ORYSAT (Rice, Tebonnet); assay: Postemergence herbicidal evaluation; format: in vivo, Oryza sativa, (L.) Tebonnet; details: postemergence
How it was run: as §1

[5] = tested on: GALAP (Galium); assay: Preemergence herbicidal evaluation; format: in vivo, Galium aparine; details: rated 4-5 weeks after treatment
How it was run: (§2)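 Steps: mix seeds into potting soil; plant atop ~1 inch soil; spray compound in aqueous acetone (~0.0156-0.500 kg/ha equivalent); maintain in greenhouse with watering; rate visually 0-9 versus control at 4-5 weeks.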

[6] = tested on: SETVI (Foxtail, Green); assay: Preemergence herbicidal evaluation; format: in vivo, Setaria viridis; details: rated 4-5 weeks after treatment
How it was run: as §2

[7] = tested on: GLXMAW (Soybean, Williams); assay: Preemergence herbicidal evaluation; format: in vivo, Glycine max, (L.) Merr. cv Williams; details: rated 4-5 weeks after treatment
How it was run: as §2

[8] = tested on: ORYSAT (Rice, Tebonnet); assay: Preemergence herbicidal evaluation; format: in vivo, Oryza sativa, (L.) Tebonnet; details: rated 4-5 weeks after treatment
How it was run: as §2

[9] = tested on: TRZAWR (Wheat, Winter, cv Riband); assay: Preemergence herbicidal evaluation; format: in vivo, Triticum aestivum; details: rated 4-5 weeks after treatment
How it was run: as §2

[10] = tested on: ZEAMX (Corn, Field); assay: Preemergence herbicidal evaluation; format: in vivo, Zea mays; details: rated 4-5 weeks after treatment
How it was run: as §2

[11] = tested on: CYPIR (Rice Flatsedge); assay: Preemergence weed control under flooded paddy conditions; format: in vivo, Cyperus iria; details: rated 3-4 weeks after treatment
How it was run: (§3)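 Ratings on a 0-9 visual scale cover stand, vigor, malformation, size, chlorosis and overall appearance relative to a control, taken three to four weeks post-treatment. Application was into flood water over freshly sown silt loam at roughly 0.0313 to 0.500 kg/ha.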

[12] = tested on: MOOVA (Monochoria); assay: as above; format: in vivo, Monochoria vaginalis; details: rated 3-4 weeks after treatment
How it was run: as §3

[13] = tested on: SAGPY (Arrowhead (Pygmaea)); assay: as above; format: in vivo, Sagittaria pygmaea; details: rated 3-4 weeks after treatment
How it was run: as §3

For COCCOC(=O)CN1C(=O)CSC1=Nc1cc(-n2c(=O)cc(C(F)(F)F)n(C)c2=O)c(F)cc1Cl [Compound 107, 2-Methoxyethyl 2-{{2-chloro-5-[3,6-dihydro-3-methyl-2,6-dioxo-4-(trifluoromethyl)-1(2H)-pyrimidinyl]-4-fluorophenyl}imino}-4-oxo-3-thiazolidineacetate], the “herbicidal rating CASOB” value ([1]; rate 0.0158 kg/ha) was 0.0, the “herbicidal rating CASOB” value ([1]; rate 0.0315 kg/ha) was 0.0 and the “herbicidal rating CASOB” value ([1]; rate 0.0630 kg/ha) was 0.0. For the same molecule, the “herbicidal rating CHEAL” value ([2]; rate 0.0158 kg/ha) was 2.0, the “herbicidal rating CHEAL” value ([2]; rate 0.0315 kg/ha) was 2.0 and the “herbicidal rating CHEAL” value ([2]; rate 0.0630 kg/ha) was 1.0. For the same molecule, the “herbicidal rating ECHCG” value ([3]; rate 0.0158 kg/ha) was 1.0, the “herbicidal rating ECHCG” value ([3]; rate 0.0315 kg/ha) was 1.0 and the “herbicidal rating ECHCG” value ([3]; rate 0.0630 kg/ha) was 3.0. The “herbicidal rating ORYSAT” value ([4]; rate 0.0158 kg/ha) was 2.0, the “herbicidal rating ORYSAT” value ([4]; rate 0.0315 kg/ha) was 2.0 and the “herbicidal rating ORYSAT” value ([4]; rate 0.0630 kg/ha) was 4.5. For the same molecule, the “Preemergence herbicidal rating GALAP” value ([5]; rate 0.0313 kg/ha) was 1.0, the “Preemergence herbicidal rating GALAP” value ([5]; rate 0.0625 kg/ha) was 1.0 and the “Preemergence herbicidal rating GALAP” value ([5]; rate 0.1250 kg/ha) was 7.0. For the same molecule, the “Preemergence herbicidal rating GALAP” value ([5]; rate 0.2500 kg/ha) was 7.0, the “Preemergence herbicidal rating SETVI” value ([6]; rate 0.0313 kg/ha) was 0.0 and the “Preemergence herbicidal rating SETVI” value ([6]; rate 0.0625 kg/ha) was 1.0. For the same molecule, the “Preemergence herbicidal rating SETVI” value ([6]; rate 0.1250 kg/ha) was 0.0, the “Preemergence herbicidal rating SETVI” value ([6]; rate 0.2500 kg/ha) was 7.0 and the “Preemergence herbicidal rating GLXMAW” value ([7]; rate 0.0313 kg/ha) was 0.0. For the same molecule, the “Preemergence herbicidal rating GLXMAW” value ([7]; rate 0.0625 kg/ha) was 1.0, the “Preemergence herbicidal rating GLXMAW” value ([7]; rate 0.1250 kg/ha) was 2.0 and the “Preemergence herbicidal rating GLXMAW” value ([7]; rate 0.2500 kg/ha) was 3.0. For the same molecule, the “Preemergence herbicidal rating ORYSAT” value ([8]; rate 0.0313 kg/ha) was 0.0, the “Preemergence herbicidal rating ORYSAT” value ([8]; rate 0.0625 kg/ha) was 0.0 and the “Preemergence herbicidal rating ORYSAT” value ([8]; rate 0.1250 kg/ha) was 0.0. For the same molecule, the “Preemergence herbicidal rating ORYSAT” value ([8]; rate 0.2500 kg/ha) was 2.0, the “Preemergence herbicidal rating TRZAWR” value ([9]; rate 0.0313 kg/ha) was 0.0 and the “Preemergence herbicidal rating TRZAWR” value ([9]; rate 0.0625 kg/ha) was 0.0. For the same molecule, the “Preemergence herbicidal rating TRZAWR” value ([9]; rate 0.1250 kg/ha) was 0.0, the “Preemergence herbicidal rating TRZAWR” value ([9]; rate 0.2500 kg/ha) was 4.0 and the “Preemergence herbicidal rating ZEAMX” value ([10]; rate 0.0313 kg/ha) was 0.0. For the same molecule, the “Preemergence herbicidal rating ZEAMX” value ([10]; rate 0.0625 kg/ha) was 0.0, the “Preemergence herbicidal rating ZEAMX” value ([10]; rate 0.1250 kg/ha) was 1.0 and the “Preemergence herbicidal rating ZEAMX” value ([10]; rate 0.2500 kg/ha) was 4.0. For the same molecule, the “CYPIR herbicidal effect rating” value ([11]; 0.0313 kg/ha) was 0.0, the “CYPIR herbicidal effect rating” value ([11]; 0.0625 kg/ha) was 0.0 and the “CYPIR herbicidal effect rating” value ([11]; 0.1250 kg/ha) was 4.0. The “CYPIR herbicidal effect rating” value ([11]; 0.2500 kg/ha) was 7.0, the “MOOVA herbicidal effect rating” value ([12]; 0.0313 kg/ha) was 4.0 and the “MOOVA herbicidal effect rating” value ([12]; 0.0625 kg/ha) was 6.0. The “MOOVA herbicidal effect rating” value ([12]; 0.1250 kg/ha) was 7.0, the “MOOVA herbicidal effect rating” value ([12]; 0.2500 kg/ha) was 9.0 and the “SAGPY herbicidal effect rating” value ([13]; 0.0313 kg/ha) was 0.0. The “SAGPY herbicidal effect rating” value ([13]; 0.0625 kg/ha) was 0.0, the “SAGPY herbicidal effect rating” value ([13]; 0.1250 kg/ha) was 0.0 and the “SAGPY herbicidal effect rating” value ([13]; 0.2500 kg/ha) was 3.0.
